{
  "source": "patent US9061015B2",
  "about": "“Stable solid dispersion of a derivative of vinca alkaloid and process for manufacturing it” (PIERRE FABRE MEDICAMENT, priority 2004, dated 2015)",
  "key": {"[1]": {"experiment": "Physicochemical stability on storage at 25° C./60% RH: variation of the content of impurities compared with t0", "conditions": "after 6 months 25° C./60% RH compared with t0", "experimental": "Variation of the content of impurities (in % relative) after 6 months 25° C./60% RH compared with t0.\nOther hydrophilic polymers such as polyethyleneglycols were tested."}, "[2]": {"experiment": "Required storage temperature (stability)", "type": "physicochemical", "conditions": "regardless of form (amorphous or crystalline) and degree of division"}},
  "data": [
    {"compound": "CCC1=C[C@@H]2CN(C1)Cc1c([nH]c3ccccc13)[C@@](C(=O)OC)(c1cc3c(cc1OC)N(C)[C@H]1[C@@](O)(C(=O)OC)[C@H](OC(C)=O)[C@]4(CC)C=CCN5CC[C@]31[C@@H]54)C2", "note": "[Vinorelbine ditartrate, vinorelbine ditartrate]", "values": [
      {"measurement": "4-0-deacetylvinorelbine impurity, variation of the content", "setting": "[1]", "result": "+0.05 % relative"},
      {"measurement": "6′-N-methylvinorelbine impurity, variation of the content", "setting": "[1]", "result": "+0.05 % relative"},
      {"measurement": "6′-N-oxyvinorelbine impurity, variation of the content", "setting": "[1]", "result": "+0.37 % relative"},
      {"measurement": "S/D6 impurity, variation of the content", "setting": "[1]", "result": "+1.02 % relative"},
      {"measurement": "Total impurities, variation of the content", "setting": "[1]", "result": "+1.87 % relative"},
      {"measurement": "temperature at which it must be kept", "setting": "[2]", "result": "below −15 °C"}
    ]}
  ]
}
